Measurements: patent US4550186A, “Binuclear copper (II) carboxylates formed from amine-carboxyboranes” (Duke University, priority 1983, dated 1985)

Tests used:
[1] = tested on: protein synthesis of Ehrlich ascites cells; test: In vitro whole cell incorporation: protein synthesis; assay type: cell-based, mouse; settings: preliminary, 60 min, read-out: ID50, protein synthesis
Protocol: CF1 male mice (~30 g) were implanted with 2×10^6 Ehrlich ascites tumor cells, intraperitoneally on Day 0. Compound I was suspended by homogenation in 0.05% polysorbate.80-water and administered intraperitoneally at 10 and 20 mg/kg for 9 days to determine its effectiveness for inhibition of tumor growth. Mice were sacrificed on Day 10, and the ascites fluid was collected from the peritoneal cavity. The volume and ascrit (packed cell volume) were determined for each animal and the percent inhibition of tumor growth was calculated. For the metabolic studies, mice were treated on Days 8 and 9 with 10 mg/kg of Compound I, intraperitoneally. The animal was sacrificed on Day 10 and the ascites fluid harvested. The in vitro metabolic studies were performed at […] final concentration of Compound I.
In vitro incorporation of ^3 H-thymidine, ^3 H-uridine, or ^3 H-leucine was determined using 10^6 Ehrlich ascites cells, 1 μCi labeled precursor, minimum essential medium and varying final concentrations of drug from 0.25-1.0 mM. The tubes were incubated at 37° C. for 60 min and inactivated by trichloroacetic acid. The acid insoluble labeled deoxyribonucleic acid was collected on GF/F glass filter discs and ribonucleic acid and protein were precipitated on nitrocellulose filters by vacuum suction. Results are expressed as dpm of incorporated precursor per hour per 10^6 cells.

[2] = biological target: T1, ATP Dependent Citrate Lyase (Mus musculus, UniProt Q91V92); test: In vivo liver enzyme study: ATP dependent citrate lyase; settings: CF1 liver after 16 days i.p.
T1 construct: 10% homogenates of CF1 male mouse liver; from tissue; host or cells: CF1 male mouse liver, 10% homogenate
T1 sequence (Q91V92 1-1091): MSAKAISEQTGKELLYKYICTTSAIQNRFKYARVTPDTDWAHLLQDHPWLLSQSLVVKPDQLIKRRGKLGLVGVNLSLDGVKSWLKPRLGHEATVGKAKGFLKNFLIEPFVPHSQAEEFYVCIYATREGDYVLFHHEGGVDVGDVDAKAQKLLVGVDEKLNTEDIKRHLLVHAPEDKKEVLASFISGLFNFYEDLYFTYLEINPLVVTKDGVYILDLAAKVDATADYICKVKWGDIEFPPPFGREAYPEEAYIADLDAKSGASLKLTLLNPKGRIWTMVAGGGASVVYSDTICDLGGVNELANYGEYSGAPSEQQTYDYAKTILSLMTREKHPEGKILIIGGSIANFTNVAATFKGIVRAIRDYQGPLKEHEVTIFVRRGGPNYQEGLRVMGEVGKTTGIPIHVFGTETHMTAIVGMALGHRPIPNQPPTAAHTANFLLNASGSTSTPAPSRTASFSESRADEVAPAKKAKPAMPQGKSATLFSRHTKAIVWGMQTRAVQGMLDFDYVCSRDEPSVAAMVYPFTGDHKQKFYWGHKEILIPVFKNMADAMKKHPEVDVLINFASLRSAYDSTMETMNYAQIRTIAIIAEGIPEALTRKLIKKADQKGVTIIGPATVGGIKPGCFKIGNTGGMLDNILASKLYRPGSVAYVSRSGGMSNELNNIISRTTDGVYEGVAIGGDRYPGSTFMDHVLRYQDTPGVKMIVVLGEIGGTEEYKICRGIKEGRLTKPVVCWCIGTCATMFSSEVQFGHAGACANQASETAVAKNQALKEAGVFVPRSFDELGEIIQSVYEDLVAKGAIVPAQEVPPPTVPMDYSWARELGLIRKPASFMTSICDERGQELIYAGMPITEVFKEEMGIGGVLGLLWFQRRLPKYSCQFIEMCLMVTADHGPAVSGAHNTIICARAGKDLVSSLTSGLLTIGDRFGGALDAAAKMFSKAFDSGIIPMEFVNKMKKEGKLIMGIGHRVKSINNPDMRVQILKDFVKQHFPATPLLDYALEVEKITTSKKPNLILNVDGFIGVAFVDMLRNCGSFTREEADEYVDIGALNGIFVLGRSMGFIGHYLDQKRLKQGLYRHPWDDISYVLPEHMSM
Protocol: In vitro enzymatic studies were determined using 10% homogenates of CF1 male mouse liver with 50-200 μM of test drugs. In vivo enzymatic studies were determined using 10% homogenates of liver from CF1 male mice obtained after administering the agents for 16 days at a dose ranging from 2.5-20 mg/kg/day intraperitoneally. The liver homogenates for both in vitro and in vivo studies were prepared in 0.25M sucrose and 0.001M (ethylenedinitrilo)tetraacetic acid. Acetyl coenzyme A synthetase and adenosine triphosphate dependent citrate lyase activities were determined spectrophotometrically at 540 nm as the hydroxylamate of acetyl coenzyme A formed after 30 min at 37° C. Mitochondrial citrate exchange was determined by the procedure of Robinson et al [Eur. J. Biochem., 216, 63 (1970)] using ^14 C-sodium bicarbonate (41 mCi/mmol) incorporated into mitochondrial ^14 C-citrate after isolating rat mitochondria (9000 g×10 min) from the homogenates. The exchanges of the ^14 C-citrate were determined after incubating the mitochondrial fraction which was loaded with labeled citrate and test drugs for 10 min. Then the radioactivity was measured in the mitochondrial and supernantant fractions in scintillation fluid and expressed as a percentage. Cholesterol side chain oxidation was determined by the method of Kritchevsky and Tepper [Artherosclerosis, 18, 93 (1973)] using (26-^14 C) cholesterol (50 mCi/mmol) and mitochondria isolated from rat liver homogenates. […] Fatty acid synthetase activity was determined by the method of Brady et al [J. Biol. Chem., 235, 3093 (1960)] using [2-^14 C] malonyl-coenzyme A (37.5 mCi/mmol) which was incorporated into newly synthesized fatty acids that were extracted with ether and counted. Acyl transferase activity was determined with glycerol-3phosphate [L-2-^3 H(N)] […] HCl and counted. Phosphatidate phosphohydrolase activity was measured as the inorganic phosphate released after 30 min from phosphatidic acid by the method of Mavis et al [J. Lipid Res., 19, 467 (1978)]. […]

{Cu[(CH3)3 N.BH2 CO2 ]2.(CH3)3 N.BH2 COOH} [Compound I]
IC50 [1]: 863 µM | ATP Dependent Citrate Lyase ([2]; 2.5 mg/kg): 70 ± 6% of control | ATP Dependent Citrate Lyase ([2]; 5.0 mg/kg): 79 ± 7% of control | ATP Dependent Citrate Lyase ([2]; 10 mg/kg): 72 ± 7% of control
